The source of these data is the supplement of paper PMC11616607.

One assay has as its system OVCAR8. Nature of the assay: drug sensitivity score (DSS) from 5-point dose-response viability curve (DSS (area-under-curve based score)); higher = more sensitive (stronger growth inhibition or killing); extreme values may be limits of the assay. As to conditions: exposure time: 72 h; concentration range: 5 concentrations over 10,000-fold range. The procedure, abridged:
(§1)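 For the drug sensitivity score, obtained per cell line and drug in Breeze software, larger values mean greater sensitivity. No response corresponds to a score of zero. Ovarian cancer and normal ovarian cells were seeded at 1,500 per well into 384-well plates already holding acoustically dispensed drugs (Echo 550, DMSO or water, five concentrations over a 10,000-fold range) and incubated 3 days at 37°C, 5% CO2. CellTiter-Glo luminescence on a PHERAstar FS gave the viability readout.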
Consider `O=C(c1ccc(C(=O)N2CCC(N3CCCC3)CC2)c(Nc2ccccc2)c1)N1CCC(N2CCCC2)CC1` [UNC1215], for which the drug sensitivity score was determined as 0.

In turn, `CCCCNc1ncc(C(=O)NCc2ccc(-n3ccnc3)cc2)c(NC2CCC(O)CC2)n1` (configuration not stated) [UNC2881] yielded a drug sensitivity score of 0. As to `NC(=O)c1cccc(-c2cccc(OC(=O)NC3CCCCC3)c2)c1` [URB597], the drug sensitivity score is 0. Take `CC(C)Nc1cc(-c2c[nH]c(C(=O)N[C@H](CO)c3cccc(Cl)c3)c2)c(Cl)cn1` [Ulixertinib]: the drug sensitivity score was determined as 3.6. Turning to `CC[C@@H]1CN(C(=O)NCC(F)(F)F)C[C@@H]1c1cnc2cnc3[nH]ccc3n12` [Upadacitinib], the drug sensitivity score worked out at 0. As for `Cn1ncc(Cl)c1-c1cc(C(=O)N[C@H](CN)Cc2ccc(F)c(F)c2)oc1Cl` [Uprosertib], the drug sensitivity score was 0. The same measure, in the same setting: in the case of `CS(=O)(=O)c1ccc(-c2cnc(N)c(C(=O)Nc3ccccc3)n2)cc1` [VE-821] it was 0; in that of `O=C(O)CC1CC(c2ccccc2)=NO1` (configuration not stated) [VGX-1027], 0; in that of `C=CC(=O)N1CC/C(=C\c2ccc(F)c([N+](=O)[O-])c2)C(=O)/C(=C/c2ccc(F)c([N+](=O)[O-])c2)C1` [VLX1570], 26.8. Regarding `CNC(=O)c1ccccc1Nc1cc(Nc2ccc(N3CCOCC3)cc2OC)ncc1C(F)(F)F` [VS-4718], the drug sensitivity score was 4.4.

`CCCC(CCC)C(=O)O` [Valproic acid] registered a drug sensitivity score of 0. For the molecule `CCCCC(=O)OCC(=O)[C@]1(O)Cc2c(O)c3c(c(O)c2[C@@H](O[C@H]2C[C@H](NC(=O)C(F)(F)F)[C@H](O)[C@H](C)O2)C1)C(=O)c1c(OC)cccc1C3=O` [Valrubicin], the drug sensitivity score was 9.5. On the same count and under the same terms, for `COc1cc2/c(=N/c3ccc(Br)cc3F)nc[nH]c2cc1OCC1CCN(C)CC1` [Vandetanib] the value was 0. `CCc1c(C(=O)C(N)=O)c2c(OCC(=O)O)cccc2n1Cc1ccccc1` [Varespladib] yielded a drug sensitivity score of 0. Regarding `C[C@@H]1COC(Nc2ccc3ncnc(Nc4ccc(OCc5nccs5)c(Cl)c4)c3c2)=N1` [Varlitinib], the drug sensitivity score was found to be 5.4. In turn, `Clc1ccc(Nc2nnc(Cc3ccncc3)c3ccccc23)cc1` [Vatalanib] registered a drug sensitivity score of 0.

The test system of another assay is Ovsaho. The assay is described as above. Conditions: exposure time: 72 h; concentration range: 5 concentrations over 10,000-fold range. The procedure, abridged: as §1
`CN(C)CCOc1ccc(/C(=C(/CCCl)c2ccccc2)c2ccccc2)cc1` [Toremifene] gave a drug sensitivity score of 3.5.

In turn, `CC(C)C[C@@H](C(=O)N[C@H](C(=O)OC1CCCC1)c1ccccc1)[C@H](O)C(=O)NO` [Tosedostat] came in with a drug sensitivity score of 5.1.

For the molecule `Cc1cc(Nc2cc(N3CCN(C)CC3)nc(Sc3ccc(NC(=O)C4CC4)cc3)n2)n[nH]1` [Tozasertib], the drug sensitivity score was found to be 2.3.

`CC(=O)Nc1cccc(-n2c(=O)n(C3CC3)c(=O)c3c(Nc4ccc(I)cc4F)n(C)c(=O)c(C)c32)c1` [Trametinib] displayed a drug sensitivity score of 12.4. Same read-out and setting: for `CC1=C(/C=C/C(C)=C/C=C/C(C)=C/C(=O)O)C(C)(C)CCC1` [Tretinoin] the value was 0; for `NC(=S)N/N=C/c1ncccc1N` [Triapine], 2.4. For the molecule `O=c1[nH]c(=O)n([C@H]2C[C@H](O)[C@@H](CO)O2)cc1C(F)(F)F` [Trifluridine], the drug sensitivity score is 2. In turn, `O=C(CCCCCCC(=O)Nc1ccc([C@H]2O[C@@H](CSc3nc(-c4ccccc4)c(-c4ccccc4)o3)C[C@@H](c3ccc(CO)cc3)O2)cc1)NO` [Tubacin] returned a drug sensitivity score of 2.3. `CN1CCc2c(c3ccccc3n2Cc2ccc(C(=O)NO)cc2)C1` [Tubastatin A] had a drug sensitivity score of 1. In turn, `Cc1cc(Nc2ncnc3ccc(NC4=NC(C)(C)CO4)cc23)ccc1Oc1ccn2ncnc2c1` [Tucatinib] had a drug sensitivity score of 0. `Nc1cc(F)ccc1NC(=O)c1ccc(CNC(=O)/C=C/c2cccnc2)cc1` [Tucidinostat] had a drug sensitivity score of 3. The molecule `CN[C@@H]1C[C@H]2O[C@@](C)([C@@H]1OC)n1c3ccccc3c3c4c(c5c6ccccc6n2c5c31)C(=O)N[C@H]4O` [UCN-01] displayed a drug sensitivity score of 23.8. Turning to `COC(=O)c1ccc2c(c1)[nH]c1ncnc(NCCCN3CCCCC3)c12` [UM729], the drug sensitivity score was determined as 0.1. With `COc1cc2c(NC3CCN(C(C)C)CC3)nc(C3CCCCC3)nc2cc1OCCCN1CCCC1` [UNC0638], the drug sensitivity score came to 0.3. `COc1cc2c(NC3CCN(C(C)C)CC3)nc(N3CCC(F)(F)CC3)nc2cc1OCCCN1CCCC1` [UNC0642] came in with a drug sensitivity score of 0. Still for that read-out and setting: in the case of `O=C(c1ccc(C(=O)N2CCC(N3CCCC3)CC2)c(Nc2ccccc2)c1)N1CCC(N2CCCC2)CC1` [UNC1215] it was 0. As to `CCCCNc1ncc(C(=O)NCc2ccc(-n3ccnc3)cc2)c(NC2CCC(O)CC2)n1` (configuration not stated) [UNC2881], the drug sensitivity score came out at 0.8. `NC(=O)c1cccc(-c2cccc(OC(=O)NC3CCCCC3)c2)c1` [URB597] gave a drug sensitivity score of 0. In the case of `CC(C)Nc1cc(-c2c[nH]c(C(=O)N[C@H](CO)c3cccc(Cl)c3)c2)c(Cl)cn1` [Ulixertinib], the drug sensitivity score is 11.5. Still for that read-out and setting: for `CC[C@@H]1CN(C(=O)NCC(F)(F)F)C[C@@H]1c1cnc2cnc3[nH]ccc3n12` [Upadacitinib] the value was 0. The same measure, in the same setting: in the case of `Cn1ncc(Cl)c1-c1cc(C(=O)N[C@H](CN)Cc2ccc(F)c(F)c2)oc1Cl` [Uprosertib] it was 0.6; in that of `CS(=O)(=O)c1ccc(-c2cnc(N)c(C(=O)Nc3ccccc3)n2)cc1` [VE-821], 1.2. In turn, `O=C(O)CC1CC(c2ccccc2)=NO1` (configuration not stated) [VGX-1027] returned a drug sensitivity score of 0. On to `C=CC(=O)N1CC/C(=C\c2ccc(F)c([N+](=O)[O-])c2)C(=O)/C(=C/c2ccc(F)c([N+](=O)[O-])c2)C1` [VLX1570], for which the drug sensitivity score stood at 25.

The molecule `CNC(=O)c1ccccc1Nc1cc(Nc2ccc(N3CCOCC3)cc2OC)ncc1C(F)(F)F` [VS-4718] had a drug sensitivity score of 11.4.

As to `CCCC(CCC)C(=O)O` [Valproic acid], the drug sensitivity score amounted to 0. The molecule `CCCCC(=O)OCC(=O)[C@]1(O)Cc2c(O)c3c(c(O)c2[C@@H](O[C@H]2C[C@H](NC(=O)C(F)(F)F)[C@H](O)[C@H](C)O2)C1)C(=O)c1c(OC)cccc1C3=O` [Valrubicin] came in with a drug sensitivity score of 10.9.

`COc1cc2/c(=N/c3ccc(Br)cc3F)nc[nH]c2cc1OCC1CCN(C)CC1` [Vandetanib] showed a drug sensitivity score of 4.7. The molecule `CCc1c(C(=O)C(N)=O)c2c(OCC(=O)O)cccc2n1Cc1ccccc1` [Varespladib] came in with a drug sensitivity score of 0. Molecule `C[C@@H]1COC(Nc2ccc3ncnc(Nc4ccc(OCc5nccs5)c(Cl)c4)c3c2)=N1` [Varlitinib] had a drug sensitivity score of 0.3. Molecule `Clc1ccc(Nc2nnc(Cc3ccncc3)c3ccccc23)cc1` [Vatalanib] yielded a drug sensitivity score of 0.7.
